Reference: ChEMBL document CHEMBL6103579, “Antiproliferative activity of selenium-enriched coumarin derivatives on the SK-N-SH neuroblastoma cell line: Mechanistic insights” (Eur J Med Chem, 2025)
The source made the active and inactive calls. No cut-off for these calls is given here.

Columns and labels:
SK-N-SH [1] = assay: Induction of mitochondrial dysfunction in human SK-N-SH cells assessed as appearance of fragmented mitochondria at 6 uM measured after 48 hrs by fluorescence microscopic analysis; type: functional, cell-based
[2] = Toxicity in female ICR mouse assessed as change in organ coefficient of spleen at 20 mg/kg, ip […] (reference value: 0.006+/-0.002); type: organism-based; conditions: in vivo
[3] = Toxicity in female ICR mouse assessed as change in organ coefficient of liver at 10 mg/kg, ip […] (reference value: 0.058+/-0.010); type: organism-based; conditions: in vivo
[4] = Drug localization in cytoplasm of human SK-N-SH cells assessed as increase in green fluorescence at 6 uM measured after 48 hrs by DAPI staining based fluorescence microscopic analysis; type: ADME, subcellular
Quadruplex DNA [5] = assay: Binding affinity to BCL-2 G4 DNA (unknown origin) assessed as dissociation constant by SPR analysis; type: nucleic-acid assay
Quadruplex DNA [6] = assay: Binding affinity to HRCC G4 DNA (mitochondrial DNA) (unknown origin) assessed as dissociation constant by SPR analysis; type: nucleic-acid assay
N2a [7] = assay: Antitumor activity against mouse N2a cells implanted in female ICR mouse model assessed as reduction in tumor weight at 10 mg/kg, ip measured upto 8 days (reference value: 0.9 +/-0.26 g); type: functional; conditions: time <= 8 day
[8] = Downregulation of vimentin expression in human SK-N-SH cells at 3 to 9 uM measured after 48 hrs by Western blot analysis relative to control; type: functional; conditions: dose 3-9 µM
N2a [9] = assay: Antitumor activity against mouse N2a cells implanted in female ICR mouse model assessed as suppression of tumor cell proliferation administered as ip dose measured upto 8 days by Ki67 staining based analysis; type: functional, organism-based; conditions: dose 10-20 mg/kg, time <= 8.0 day
SK-N-SH [10] = assay: Upregulation of Bax expression in human SK-N-SH cells at 3 to 9 uM measured after 48 hrs by Western blot analysis; type: functional, cell-based; conditions: dose 3-9 µM
[11] = Toxicity in female ICR mouse assessed as histomorphological changes in liver at 10 to 20 mg/kg, ip H and E staining based analysis; type: organism-based; conditions: in vivo, dose 10-20 mg/kg
SK-N-SH [12] = assay: Induction of mitochondrial dysfunction in human SK-N-SH cells assessed as increase in intracellular green fluorescence intensity at 3 to 9 uM; type: functional, cell-based; conditions: dose 3-9 µM
N2a [13] = assay: Antitumor activity against mouse N2a cells implanted in female ICR mouse model assessed as reduction in cell nuclear size at 10 to 20 mg/kg, ip by H and E staining based analysis; type: functional, organism-based; conditions: dose 10-20 mg/kg
N2a [14] = assay: Antitumor activity against mouse N2a cells implanted in female ICR mouse model assessed as change in body weight at 20 mg/kg, ip measured upto 8 days (reference value: 25.54 +/-2.19 g); type: functional; conditions: time <= 8 day
N2a [15] = assay: Antiproliferative activity against mouse N2a cells assessed as inhibition of cell growth incubated for 60 hrs by CCK-8 method; type: functional, cell-based
SK-N-SH [16] = assay: Induction of apoptosis in human SK-N-SH cells assessed as increase in apoptotic cells measured after 48 hrs by FITC and PI staining based flow cytometry analysis; type: functional, cell-based; conditions: dose 3-9 µM
N2a [17] = assay: Antitumor activity against mouse N2a cells implanted in female ICR mouse model assessed as change in body weight at 10 mg/kg, ip measured upto 8 days (reference value: 25.54 +/-2.19 g); type: functional; conditions: time <= 8 day
[18] = Antiproliferative activity against human Neuroblastoma cell assessed as inhibition of cell growth incubated for 60 hrs by CCK-8 method; type: functional, cell-based
SK-N-SH [19] = assay: Inhibition of cell migration in human SK-N-SH cells at 0.5 to 2 uM measured after 48 hrs by crystal violet staining based microscopic analysis; type: functional; conditions: dose 0.5-2 µM
[20] = Toxicity in female ICR mouse assessed as hyperplasia in liver at 10 to 20 mg/kg, ip by H and E staining based analysis; type: organism-based; conditions: in vivo, dose 10-20 mg/kg
[21] = Toxicity in female ICR mouse assessed as change in organ coefficient of kidney at 10 mg/kg, ip […] (reference value: 0.007); type: organism-based; conditions: in vivo
[22] = (§1) Upregulation of E-cadherin expression in human SK-N-SH cells measured after 48 hrs by Western blot analysis relative to control; type: functional; conditions: dose 3-9 µM, at 3 to 9 µM
SK-N-SH [23] = assay: as §1; type: functional; conditions: dose 3-9 µM
N2a [24] = assay: Antitumor activity against mouse N2a cells implanted in female ICR mouse model assessed as tumor inhibition rate at 10 mg/kg, ip measured upto 8 days relative to control; type: functional; set-up: scale not given: the % may be the effect or the level left; conditions: time <= 8 day
SK-N-SH [25] = assay: Upregulation of Bax/[…] ratio in human SK-N-SH cells at 3 to 9 uM measured after 48 hrs by Western blot analysis; type: functional, cell-based; conditions: dose 3-9 µM
[26] = Toxicity in female ICR mouse assessed as histomorphological changes in spleen at 10 to 20 mg/kg, ip H and E staining based analysis; type: organism-based; conditions: in vivo, dose 10-20 mg/kg
SK-N-SH [27] = assay: Induction of mitochondrial dysfunction in human SK-N-SH cells assessed as appearance of ring like distribution at 6 uM measured upto 48 hrs; type: functional, cell-based
SK-N-SH [28] = assay: Upregulation of AIF level in human SK-N-SH cells at 6 uM measured after 48 hrs by immunofluorescence staining based microscopic analysis; type: functional, cell-based
[29] = Toxicity in female ICR mouse assessed as appearance of homogenous renal corpuscles in kidney at 10 to 20 mg/kg, ip H and E staining based analysis; type: organism-based; conditions: in vivo, dose 10-20 mg/kg
SK-N-SH [30] = assay: Downregulation of Bcl-2 expression in human SK-N-SH cells at 3 to 9 uM measured after 48 hrs by Western blot analysis; type: functional, cell-based; conditions: dose 3-9 µM
[31] = Drug localization in nucleus of human SK-N-SH cells assessed as increase in green fluorescence at 6 uM measured after 48 hrs by DAPI staining based fluorescence microscopic analysis; type: ADME, subcellular
SK-N-SH [32] = assay: Downregulation of caspase-3 expression in human SK-N-SH cells at 3 to 9 uM measured after 48 hrs by Western blot analysis; type: functional, cell-based; conditions: dose 3-9 µM

SMILES: N#C[Se]CCCOc1ccc2cc(C(=O)N3N=C(c4ccc(F)cc4)CC3c3ccc(F)cc3)c(=O)oc2c1 (configuration not stated)
- Activity (SK-N-SH [1]): Active
- Activity [2]: 0.005
- Activity [3]: 0.059
- Drug uptake [4]: Active
- Kd (Quadruplex DNA [5]): 78.5 nM
- Kd (Quadruplex DNA [6]): 14.2 nM
- Activity (N2a [7]): 0.19 g
- Activity [8]: 33.1%
- Activity (N2a [9]): Dose-dependent-effect
- Activity (SK-N-SH [10]): Active
- Activity [11]: Non-toxic
- Activity (SK-N-SH [12]): Active
- Activity (N2a [13]): Active
- Activity (N2a [14]): 26.34 g
- IC50 (N2a [15]): 17900 nM
- Activity (SK-N-SH [16]): Dose-dependent-effect
- Activity (N2a [17]): 27.2 g
- IC50 [18]: 2500 nM
- inhibition (SK-N-SH [19]): Active
- Activity [20]: Non-toxic
- Activity [21]: 0.007
- Activity [22]: 32.3%
- Activity (SK-N-SH [23]): Dose-dependent-effect
- Activity (N2a [24]): 79.1%
- Activity (SK-N-SH [25]): Active
- Activity [26]: Non-toxic
- Activity (SK-N-SH [27]): Active
- Activity (SK-N-SH [28]): Active
- Activity [29]: Non-toxic
- Activity (SK-N-SH [30]): Active
- Drug uptake [31]: Not_active
- Activity (SK-N-SH [32]): Active
